Structures can show the parent of a compound that is named as a salt.
How the values were obtained:
[1] = molecular target: T1, recombinant human Lp-PLA2 (Homo sapiens, UniProt Q13093); experiment: (1b) hrThioPAF assay, recombinant human Lp-PLA2; type: biochemical; settings: Examples 266-412 were tested here, one experiment or average of multiple experiments, read-out: rhLp-PLA2 (pIC50) (converted)
T1 sequence (Q13093 22-441): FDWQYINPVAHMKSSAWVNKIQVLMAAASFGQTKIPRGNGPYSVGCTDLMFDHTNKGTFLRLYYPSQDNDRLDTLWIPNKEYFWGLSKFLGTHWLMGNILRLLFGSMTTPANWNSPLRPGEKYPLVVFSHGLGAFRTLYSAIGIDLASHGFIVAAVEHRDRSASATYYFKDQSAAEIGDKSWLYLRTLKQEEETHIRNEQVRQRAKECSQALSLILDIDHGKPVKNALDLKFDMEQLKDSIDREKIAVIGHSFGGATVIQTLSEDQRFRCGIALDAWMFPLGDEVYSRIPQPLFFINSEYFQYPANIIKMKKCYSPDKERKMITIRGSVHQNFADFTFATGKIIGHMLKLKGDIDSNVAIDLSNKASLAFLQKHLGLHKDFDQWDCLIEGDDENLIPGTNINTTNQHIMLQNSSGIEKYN
Method in brief: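 Fluorogenic assay: 20 pM rhLp-PLA2 in 50 mM HEPES pH 7.4, 150 mM NaCl, 1 mM CHAPS with 1:3 serially diluted compounds; substrate mix of 40 μM 2-thio-PAF, 40 μM CPM, 400 μM NEM (pre-addition levels). 20 min at 25 °C in the dark; fluorescence ex 380/em 485 nm, pIC50 by curve fitting.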

Lp-PLA2 in human plasma = molecular target: T2, Lp-PLA2 in human plasma (Homo sapiens, UniProt Q13093); experiment: (3b) Lp-PLA2 human plasma alternative Thio-PAF assay; type: biochemical; settings: (3b) alternative Thio-PAF assay, pooled human plasma; Examples of 266-412 were tested here; read-out: pIC50 in the Lp-PLA2 human plasma assay (converted)
T2 construct: from tissue; host or cells: pooled human plasma
T2 sequence (Q13093 22-441): T1 sequence (Q13093 22-441)
Procedure: (3b) Alternative Thio-PAF Assay
The human plasma assay utilizes the same thioester analog of PAF as described in (1b) “hr ThioPAF” assay. This assay may detect the activity of Lp-PLA2 in human plasma, as determined by specific inhibition by Lp-PLA2 inhibitors.
The thio-PAF assay was run as a quenched 20 μL assay. Compounds source plate was prepared by making 1:3 (by volume) serial dilution of the compounds into pure DMSO on 96-well microplate. 5 μL of compounds on compound source plate were transferred to 96-well Corning 3686 (black) low-volume plates by STAR+(Hamilton) liquid dispenser. 10 μL pooled human plasma, which was previously aliquoted and frozen, was added. Plates were centrifuged for 30 sec at 1000 rpm. After 15 minutes preincubation at room temperature, 5 μL of substrate solution comprising 2 mM 2-thio-PAF [from ethanol stock], 52 μM CPM [from a DMSO stock] and 2.5 mM NEM (N-ethylmaleimide) [made fresh daily in DMSO] in assay buffer (50 mM HEPES, pH 7.4, 150 mM NaCl, 1 mM CHAPS) was added to 96-well Corning 3686 (black) low-volume plates. After 3 mins, reaction was quenched with 10 μL of 5% aqueous trifluoroacetic acid (TFA). Plates were centrifuged 30 sec at 1000 rpm, covered to protect from light and incubated for 10 min at room temperature. Plates were read at ex: 380 nm/em: 485 nm using Envision plate reader (Perkin Elmer). Raw data were transferred to Excel software and pIC50 data, curve and QC analysis was conducted by using XL fit module in Excel.

Compound	IC50 [1] [µM]	IC50 (Lp-PLA2 in human plasma) [nM]
CC(C)S(=O)(=O)N1CCN2c3cc(OCc4ccc(F)c(C#N)c4)nc(=O)n3CC2C1 (centres unmarked) [Example E295, 2-Fluoro-5-(((2-(isopropylsulfonyl)-9-oxo-2,3,4,9,11,11a-hexahydro-1H-pyrazino[1′,2′:3,4]imidazo[1,2-c]pyrimidin-7-yl)oxy)methyl)benzonitrile 2,2,2-trifluoroacetate]	≤ 10	≤ 100
CC(C)C(=O)N1CCN2c3cc(OCc4ccc(F)c(F)c4)nc(=O)n3CC2C1 (centres unmarked) [Example E310, 7-((3,4-Difluorobenzyl)oxy)-2-isobutyryl-3,4,11,11a-tetrahydro-1Hpyrazino[1′,2′:3,4] imidazo[1,2-c]pyrimidin-9(2H)-one]	≤ 0.1	≤ 100
CCOC(=O)N1CCN2c3cc(OCc4ccc(F)c(F)c4)nc(=O)n3CC2C1 (centres unmarked) [Example E306, Ethyl 7-((3,4-difluorobenzyl)oxy)-9-oxo-3,4,11,11a-tetrahydro-1H-pyrazino[1′,2′:3,4]imidazo[1,2-c]pyrimidine-2(9H)-carboxylate]	≤ 10	≤ 100
CC(C)CN1CCN2c3cc(OCc4ccc(F)c(F)c4)nc(=O)n3CC2C1 (centres unmarked) [Example E305, 7-((3,4-Difluorobenzyl)oxy)-2-isobutyl-3,4,11,11a-tetrahydro-1H-pyrazino[1′,2′:3,4]imidazo[1,2-c]pyrimidin-9(2H)-one]	≤ 10	≤ 100
CCCC(=O)N1CCN2c3cc(OCc4ccc(F)c(C#N)c4)nc(=O)n3CC2C1 (centres unmarked) [Example E291, 5-(((2-Butyryl-9-oxo-2,3,4,9,11,11a-hexahydro-1H-pyrazino[1′,2′:3,4]imidazo[1,2-c]pyrimidin-7-yl)oxy)methyl)-2-fluorobenzonitrile 2,2,2-trifluoroacetate]	≤ 10	≤ 100
O=c1nc(OCc2ccc(Oc3ccnc(C(F)(F)F)c3)c(F)c2)cc2n1CC1CNCCN21 (centres unmarked) [Example E267, 7-((3-Fluoro-4-((2-(trifluoromethyl)pyridin-4-yl)oxy)benzyl)oxy)-3,4,11,11a-tetrahydro-1H-pyrazino[1′,2′:3,4] imidazo [1,2-c]pyrimidin-9(2H)-one]	≤ 0.1	≤ 100
CN(C)CC(=O)N1CCN2c3cc(OCc4ccc(F)c(C#N)c4)nc(=O)n3CC2C1 (centres unmarked) [Example E284, 5-(((2-(2-(Dimethylamino)acetyl)-9-oxo-2,3,4,9,11,11a-hexahydro-1H-pyrazino[1,2′:3,4]imidazo[1,2-c]pyrimidin-7-yl)oxy)methyl)-2-fluorobenzonitrile]	≤ 10	≤ 100
CC(C)(C)C(=O)N1CCN2c3cc(OCc4ccc(F)c(C#N)c4)nc(=O)n3CC2C1 (centres unmarked) [Example E294, 2-Fluoro-5-(((9-oxo-2-pivaloyl-2,3,4,9,11,11a-hexahydro-1H-pyrazino[1′,2′:3,4]imidazo[1,2-c]pyrimidin-7-yl)oxy)methyl)benzonitrile 2,2,2-trifluoroacetate]	≤ 10	≤ 100
COC(=O)N1CCN2c3cc(OCc4ccc(F)c(F)c4)nc(=O)n3CC2C1 (centres unmarked) [Example E300, Methyl 7-((3,4-difluorobenzyl)oxy)-9-oxo-3,4,11,11a-tetrahydro-1H-pyrazino[1′,2′:3,4]imidazo[1,2-c]pyrimidine-2(9H)-carboxylate]	≤ 10	≤ 100
CC(=O)N1CCN2c3cc(OCc4ccc(F)c(C#N)c4)nc(=O)n3CC2C1 (centres unmarked) [Example E281, 5-(((2-Acetyl-9-oxo-2,3,4,9,11,11a-hexahydro-1H-pyrazino[1′,2′:3,4]imidazo[1,2-c]pyrimidin-7-yl)oxy)methyl)-2-fluorobenzonitrile, trifluoroacetic Acid Salt]	≤ 10	≤ 100
CS(=O)(=O)N1CCN2c3cc(OCc4ccc(F)c(F)c4)nc(=O)n3CC2C1 (centres unmarked) [Example E313, 7-((3,4-Difluorobenzyl)oxy)-2-(methylsulfonyl)-3,4,11,11a-tetrahydro-1H-pyrazino[1′,2′:3,4]imidazo[1,2-c]pyrimidin-9(2H)-one]	≤ 0.1	≤ 100
O=C(O)C(F)(F)F.[2H]C1([2H])C2CNCCN2c2cc(OCc3ccc(F)c(C#N)c3)nc(=O)n21 (centres unmarked) [Example E269, 5-(((11,11-Dideutero-9-oxo-2,3,4,9,11,11a-hexahydro-1H-pyrazino[1′,2′:3,4]imidazo [1,2-c]pyrimidin-7-yl)oxy)methyl)-2-fluorobenzonitrile 2,2,2-trifluoroacetate]	≤ 10	≤ 100

Next, values leading:

IC50 [1] [µM]	IC50 (Lp-PLA2 in human plasma) [nM]	Compound
≤ 10	≤ 100	Cc1ccc(Oc2c(F)cc(COc3cc4n(c(=O)n3)CC3CN(C)CCN43)cc2F)cn1 (centres unmarked) [Example E321, 7-((3,5-Difluoro-4-((6-methylpyridin-3-yl)oxy)benzyl)oxy)-2-methyl-3,4,11,11a-tetrahydro-1Hpyrazino[1′,2′:3,4]imidazo[1,2-c]pyrimidin-9(2H)-one]
≤ 10	≤ 100	CN1CC2Cn3c(cc(OCc4ccc(F)c(F)c4)nc3=O)N2CC1=O (centres unmarked) [Example E359, 7-((3,4-Difluorobenzyl)oxy)-2-methyl-11,11a-dihydro-1H-pyrazino[1,2′:3,4]imidazo[1,2-c]pyrimidine-3,9(2H,4H)-dione]
0.000794	≤ 100	O=c1nc(OCc2cc(F)c(Oc3ccnc(C(F)(F)F)c3)c(F)c2)cc2n1CC1(COC1)N2 [Example E395, 7-((3,5-difluoro-4-((2-(trifluoromethyl)pyridin-4-yl)oxy)benzyl)oxy)-1H-spiro[imidazo[1,2-c]pyrimidine-2,3′-oxetan]-5(3H)-one]
≤ 10	≤ 100	CC(C)(C)C(=O)N1CCN2c3cc(OCc4ccc(F)c(F)c4)nc(=O)n3CC2C1 (centres unmarked) [Example E332, 7-((3,4-Difluorobenzyl)oxy)-2-pivaloyl-3,4,11,11a-tetrahydro-1H-pyrazino[1′,2′:3,4]imidazo[1,2-c]pyrimidin-9(2H)-one]
≤ 0.1	≤ 100	CC(=O)N1CCN2c3cc(OCc4ccc(F)c(F)c4)nc(=O)n3CC2C1 (centres unmarked) [Example E315, 2-Acetyl-7-((3,4-difluorobenzyl)oxy)-3,4,11,11a-tetrahydro-1H-pyrazino[1′,2′:3,4]imidazo[1,2-c]pyrimidin-9(2H)-one]
≤ 10	≤ 100	CN1CCN2c3cc(OCc4ccc(F)c(F)c4)nc(=O)n3CC2C1 (centres unmarked) [Example E320, 7-((3,4-Difluorobenzyl)oxy)-2-methyl-3,4,11,11a-tetrahydro-1H-pyrazino[1,2′:3,4]imidazo[1,2-c]pyrimidin-9(2H)-one]
≤ 10	≤ 100	O=C1CN2c3cc(OCc4ccc(F)c(F)c4)nc(=O)n3CC2CN1 (centres unmarked) [Example E356, 7-((3,4-difluorobenzyl)oxy)-11,11a-dihydro-1H-pyrazino[1′,2′:3,4]imidazo[1,2-c]pyrimidine-3,9(2H,4H)-dione]
≤ 10	≤ 100	CC(C)(N)C(=O)N1CCN2c3cc(OCc4ccc(F)c(F)c4)nc(=O)n3CC2C1 (centres unmarked) [Example E335, 2-(2-Amino-2-methylpropanoyl)-7-((3,4-difluorobenzyl)oxy)-3,4,11,11a-tetrahydro-1H-pyrazino[1,2′:3,4]imidazo[1,2-c]pyrimidin-9(2H)-one]
≤ 10	≤ 100	O=c1nc(OCc2ccc(F)c(F)c2)cc2n1CC1(COC1)N2 [Example E396, 7-((3,4-difluorobenzyl)oxy)-1H-spiro[imidazo[1,2-c]pyrimidine-2,3′-oxetan]-5(3H)-one]
≤ 0.001	≤ 100	O=C1CN2c3cc(OCc4cc(F)c(Oc5ccnc(C(F)(F)F)c5)c(F)c4)nc(=O)n3CC2CN1 (centres unmarked) [Example E351, 7-((3,5-Difluoro-4-((2-(trifluoromethyl)pyridin-4-yl)oxy)benzyl)oxy)-11,11a-dihydro-1H-pyrazino[1′,2′:3,4]imidazo[1,2-c]pyrimidine-3,9(2H,4H)-dione]

— patent US11999746B2, “Compounds” (GlaxoSmithKline Intellectual Property Development Limited, priority 2014, dated 2024)
